The values that follow come from patent US20260207754A1, “MET PROTEIN DEGRADATION INDUCING COMPOUND” (ONCOZEN CO., LTD., priority 2022, published 2026).

Molecules are shown by their SMILES.

Holding throughout (assay type): cell-based
One experiment concerns H1437 cells. The experiment can be described thus: Cell viability assay (CCK8). The note with it: Homo sapiens, NCI-H1437, 72 h, three days treatment. The procedure: (§1) This experiment involves treating cells with each of the compounds prepared in Examples 1 to 11, and then observing changes in cell cytotoxicity and cell count. The IC50 values, derived from the changes in cell count, can be used to assess the cancer cell growth inhibition and anti-cancer effects of the compound of the present invention.
(§2) Cells (H596 or H1437 cells) were seeded in a 96-well plate at 3×10^3 cells per well and then cultured for more than 12 hours. After removing the media, each well was treated with 200 μl of the respective diluted compounds prepared in Examples 1 to 11. Three days later, the media was removed, and each well was treated with 10 μl of CCK8 reagent+90 μl of media. After 3-4 hours of reaction, the absorbance was measured using an ELISA reader at a wavelength of 450 nm.

A further experiment has as its system H596 cells. Put plainly: Cell viability assay (CCK8). The note with it: Homo sapiens, NCI-H596, 72 h, three days treatment. The procedure:
as §1, §2

In experiment [1] the test system is c-MET (total form). Put plainly: Target protein degradation assay (Western blot). The note with it: H596 cells, Western blot; standard concentration and time 5 μM, 72 hours. The procedure: This experiment assessed the tendency and extent of degradation of the target protein c-MET (total form) in cells treated with each of the compounds prepared in Examples 1 to 11.
(§3) Cells (H596 or H1437 cells) were seeded in Φ60 or Φ100 culture dishes to reach 5×10^5 or 1×10^6 cells, and then cultured for more than 12 hours. After removing the media, the cells were treated with each respective compound prepared in Examples 1 to 11 at various conditions-concentrations (0, 2.5, 5, 10 μM), time (0, 6, 8, 24, 48, 72 hours), and standard concentration and time (5 μM, 72 hours) for all compounds. The cells were then harvested, lysed using RIPA buffer, and centrifuged (4° C., 13000 rpm, 15 min), to collect the supernatant in a new tube. Protein quantification was performed using the Bradford Assay, and samples were prepared for loading by boiling at 95° C. Western blotting was performed. The samples were loaded onto an SDS polyacrylamide gel (8% concentration). Electrophoresis was conducted at 80V, and then switched to 100-120V (when the loaded sample moves from the stacking gel to the running gel). After electrophoresis, the polyacrylamide gel was transferred onto the membrane (using transfer buffer diluted at 10× transfer buffer:methanol:D.W=1:2:7 ratio, cold, for 100V, 1 hour or 80V, 2 hours). The membrane was blocked with 5% skim milk for 30 minutes and washed with PBS-T (phosphate-buffered saline with Tween 20) buffer. The primary antibody was diluted in 5% BSA+NaN3 solution and reacted with the membrane for over 12 hours, followed by washing with PBS-T and reaction with 5% skim milk+secondary antibody for 1 hour and 30 minutes. After washing with PBS-T, the ECL solution was reacted with the membrane, and the bands were detected using an imaging device to confirm the degradation of the target protein c-MET.
(In western blotting, separated proteins are transferred to a membrane and probed.)

The test system of experiment [2] is c-MET (total form). Put plainly: Target protein degradation assay (Western blot). Particulars: H1437 cells, standard concentration and time 5 μM, 72 hours. On the procedure: as §3, with “After removing the media, the cells were treated with each respective compound prepared in Examples 1 to 11 at various conditions-concentrations (0, 2.5, 5, 10 μM), time (0, 6, 8, 24, 48, 72 hours), and standard concentration and time (5 μM, 72 hours) for all compounds.” left out

Broadly, the IC50 is the point on the concentration scale where inhibition reaches its midpoint. In the case of `CC(C)c1cc(C(=O)N(C)Cc2ccc(C(=O)NCCCCC(=O)N3CCC(COc4cnc(-c5cccc(Cn6nc(-c7cccc(C#N)c7)ccc6=O)c5)nc4)CC3)cc2)c(O)cc1O` [OZD-MET 11, N-{[4-({5-[4-({[2-(3-{[3-(3-cyanophenyl)-6-oxopyridazin-1-yl]methyl}phenyl)pyrimidin-5-yl]oxy}methyl)piperidin-1-yl]-5-oxopentyl}carbamoyl)phenyl]methyl}-2,4-dihydroxy-5-isopropyl-N-methylbenzamide], the IC50 worked out at 3.44 µM with H1437 cells and 3.99 µM with H596 cells. Further, in the experiment with c-MET (total form) [1], the “c-MET degradation H596” value is 2 (10% < degradation < 50%: 2). For the same molecule, the “c-MET degradation H1437” value in the experiment on c-MET (total form) [2] is listed as 1 (50% < degradation: 1).
